Laboratory results taken from patent US7462600B2, “Macrolides” (Pfizer Inc, priority 2004, dated 2008).
Converted amounts (≈) assume the structure as drawn. Read-outs that look alike come from different tables or passages of the source.

Key:
Format in all cases: cell-based
[1] = system: Streptococcus pyogenes 1079; test: MIC, microtiter broth dilution (NCCLS M100-S14), S. pyogenes 1079 (ermB)
How it was run: (§1)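 Compounds were first dissolved in DMSO (40 mg/ml stock), then tested by broth dilution in microtiter trays. MICs were interpreted using the 14th Informational Supplement (M100-S14) criteria.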

[2] = system: Streptococcus pneumoniae 1016; test: MIC, microtiter broth dilution (NCCLS M100-S14), S. pneumoniae 1016 (susceptible)
How it was run: as §1

[3] = system: Streptococcus pneumoniae 1095; conditions: microtiter broth dilution
How it was run: as §1

[4] = system: Streptococcus pneumoniae 1175; conditions: microtiter broth dilution
How it was run: as §1

[5] = system: Haemophilus influenzae 1218; test: MIC, microtiter broth dilution (NCCLS M100-S14), H. influenzae 1218 (susceptible)
How it was run: as §1

[6] = S. pneumoniae 1016 (susceptible)
[7] = H. influenzae 1218 (susceptible)

Structure (SMILES) | MIC S. pyogenes 1079 ([1]; Streptococcus pyogenes 1079) | MIC S. pneumo. 1016 ([2]; Streptococcus pneumoniae 1016) | MIC S. pneumo. 1095 ([3]; Streptococcus pneumoniae 1095) | MIC S. pneumo. 1175 ([4]; Streptococcus pneumoniae 1175) | MIC H. influenzae 1218 ([5]; Haemophilus influenzae 1218) | MIC S. pyogenes 1079 ([1]; S. pyogenes 1079 (ermB)) | MIC S. pneumo. 1016 [2, 6] | MIC S. pneumo. 1095 ([3]; S. pneumoniae 1095 (ermB)) | MIC S. pneumo. 1175 ([4]; S. pneumoniae 1175 (mefA)) | MIC H. influenzae 1218 [5, 7]
CCC1OC(=O)C(C)C(=O)C(C)C(OC2OC(C)CC(N(C)C)C2O)C(C)(OC)CC(C)C(=O)C(C)C2N(C3CN(Cc4cccc5nccnc45)C3)C(=O)OC12C (stereo not shown) [Example 1.12, 3-descladinosyl-11,12-dideoxy-6-O-methyl-3-oxo-12,11-(oxycarbonyl-(1-((quinoxalin-8-yl)-methyl)-azetidin-3-yl)-imino)-erythromycin A] | 2 µg/mL (≈ 2.47 µM) | <0.06 µg/mL | <0.06 µg/mL | <0.06 µg/mL | 0.25 µg/mL (≈ 0.309 µM) | – | – | – | – | –
CCC1OC(=O)C(C)C(=O)C(C)C(OC2OC(C)CC(N(C)C)C2O)C(C)(OC)CC(C)C(=O)C(C)C2N(C3CN(S(=O)(=O)c4ccc(NC(C)=O)cc4)C3)C(=O)OC12C (stereo not shown) [Example 3.108, 3-descladinosyl-11,12-dideoxy-6-O-methyl-3-oxo-12,11-(oxycarbonyl-(1-(4-acetamidobenzene-1-sulfonyl)-azetidin-3-yl)-imino)-erythromycin A] | 0.25 µg/mL (≈ 0.289 µM) | <0.063 µg/mL | <0.063 µg/mL | 0.5 µg/mL (≈ 0.578 µM) | 1 µg/mL (≈ 1.16 µM) | – | – | – | – | –
CCC1OC(=O)C(C)C(=O)C(C)C(OC2OC(C)CC(N(C)C)C2O)C(C)(OC)CC(C)C(=O)C(C)C2N(C3CN(S(=O)(=O)c4cccnc4OC)C3)C(=O)OC12C (stereo not shown) [Example 3.37, 2-methoxypyridine-3-sulfonyl] | 16 µg/mL (≈ 19.1 µM) | <0.06 µg/mL | 4 µg/mL (≈ 4.77 µM) | <0.06 µg/mL | 0.5 µg/mL (≈ 0.596 µM) | – | – | – | – | –
CCC1OC(=O)C(C)C(=O)C(C)C(OC2OC(C)CC(N(C)C)C2O)C(C)(OC)CC(C)C(=O)C(C)C2N(C3CN(Cc4c(Cl)cnc5ncccc45)C3)C(=O)OC12C (stereo not shown) [Example 1.76, 3-descladinosyl-11,12-dideoxy-6-O-methyl-3-oxo-12,11-(oxycarbonyl-(1-(3-chloro-1,8-naphthyridine-4-methyl)-azetidin-3-yl)-imino)-erythromycin A] | 0.125 µg/mL (≈ 0.148 µM) | <0.063 µg/mL | <0.063 µg/mL | <0.063 µg/mL | 0.5 µg/mL (≈ 0.592 µM) | – | – | – | – | –
CCC1OC(=O)C(C)C(=O)C(C)C(OC2OC(C)CC(N(C)C)C2O)C(C)(OC)CC(C)C(=O)C(C)C2N(CC3CCN(Cc4c[nH]c5ncccc45)C3)C(=O)OC12C (stereo not shown) [13.01] | – | – | – | – | – | >64.00 µg/mL | <0.06 µg/mL | 0.25 µg/mL (≈ 0.303 µM) | 1 µg/mL (≈ 1.21 µM) | 1 µg/mL (≈ 1.21 µM)
CCC1OC(=O)C(C)C(=O)C(C)C(OC2OC(C)CC(N(C)C)C2O)C(C)(OC)CC(C)C(=O)C(C)C2N(CC3CCN(C(=O)c4cnc5ccccc5n4)C3)C(=O)OC12C (stereo not shown) [13.13] | – | – | – | – | – | >64.00 µg/mL | <0.06 µg/mL | >64.00 µg/mL | 0.5 µg/mL (≈ 0.587 µM) | 16 µg/mL (≈ 18.8 µM)
CCC1OC(=O)C(C)C(=O)C(C)C(OC2OC(C)CC(N(C)C)C2O)C(C)(OC)CC(C)C(=O)C(C)C2N(CC3CN(Cc4cnc5ccccc5n4)C3)C(=O)OC12C (stereo not shown) [4.12] | 64 µg/mL (≈ 77.7 µM) | <0.06 µg/mL | 8 µg/mL (≈ 9.71 µM) | 0.12 µg/mL (≈ 0.146 µM) | 1 µg/mL (≈ 1.21 µM) | – | – | – | – | –
CCC1OC(=O)C(C)C(=O)C(C)C(OC2OC(C)CC(N(C)C)C2O)C(C)(OC)CC(C)C(=O)C(C)C2N(CC3CCCN3C(=O)c3cccc4ncoc34)C(=O)OC12C (stereo not shown) [10.23] | – | – | – | – | – | >64.00 µg/mL | <0.06 µg/mL | <0.06 µg/mL | 1 µg/mL (≈ 1.19 µM) | 8 µg/mL (≈ 9.51 µM)
CCC1OC(=O)C(C)C(=O)C(C)C(OC2OC(C)CC(N(C)C)C2O)C(C)(OC)CC(C)C(=O)C(C)C2N(C3CN(S(=O)(=O)c4ccc5c(c4)CC(=O)N5)C3)C(=O)OC12C (stereo not shown) [Example 3.42, 3-descladinosyl-11,12-dideoxy-6-O-methyl-3-oxo-12,11-(oxycarbonyl-(1-(2-oxoindoline-5-sulfonyl)-azetidin-3-yl)-imino)-erythromycin A] | 2 µg/mL (≈ 2.32 µM) | <0.06 µg/mL | <0.06 µg/mL | 0.5 µg/mL (≈ 0.579 µM) | 2 µg/mL (≈ 2.32 µM) | – | – | – | – | –
CCC1OC(=O)C(C)C(=O)C(C)C(OC2OC(C)CC(N(C)C)C2O)C(C)(OC)CC(C)C(=O)C(C)C2N(CC3(O)CN(C(=O)c4ccc5ncccc5c4)C3)C(=O)OC12C (stereo not shown) [7.05] | – | – | – | – | – | >64.00 µg/mL | <0.06 µg/mL | 2 µg/mL (≈ 2.34 µM) | 1 µg/mL (≈ 1.17 µM) | 1 µg/mL (≈ 1.17 µM)
CCC1OC(=O)C(C)C(=O)C(C)C(OC2OC(C)CC(N(C)C)C2O)C(C)(OC)CC(C)C(=O)C(C)C2N(CC3CCN(C(=O)c4cncc5ccccc45)C3)C(=O)OC12C (stereo not shown) [13.17] | – | – | – | – | – | >64.00 µg/mL | <0.06 µg/mL | >64.00 µg/mL | 0.25 µg/mL (≈ 0.294 µM) | 4 µg/mL (≈ 4.7 µM)
CC[C@H]1OC(=O)[C@H](C)C(=O)[C@H](C)[C@@H](O[C@@H]2O[C@H](C)C[C@H](N(C)C)[C@H]2O)[C@](C)(OC)C[C@@H](C)C(=O)[C@H](C)[C@H]2N(CC3(C)CN(Cc4ccc5cccnc5c4)C3)C(=O)O[C@]12C [6.06] | >64.00 µg/mL | <0.06 µg/mL | 0.5 µg/mL (≈ 0.597 µM) | 0.5 µg/mL (≈ 0.597 µM) | 1 µg/mL (≈ 1.19 µM) | – | – | – | – | –
CC[C@H]1OC(=O)[C@H](C)C(=O)[C@H](C)[C@@H](O[C@@H]2O[C@H](C)C[C@H](N(C)C)[C@H]2O)[C@](C)(OC)C[C@@H](C)C(=O)[C@H](C)[C@H]2N(CC3(O)CN(Cc4ccc(-c5ncccn5)cc4)C3)C(=O)O[C@]12C [7.10] | – | – | – | – | – | >64.00 µg/mL | <0.06 µg/mL | 64 µg/mL (≈ 73.9 µM) | 1 µg/mL (≈ 1.15 µM) | 2 µg/mL (≈ 2.31 µM)
CCC1OC(=O)C(C)C(=O)C(C)C(OC2OC(C)CC(N(C)C)C2O)C(C)(OC)CC(C)C(=O)C(C)C2N(C3CN(S(=O)(=O)c4cccc(F)c4)C3)C(=O)OC12C (stereo not shown) [Example 3.08, 3-fluorobenzenesulfonyl] | 16 µg/mL (≈ 19.4 µM) | <0.06 µg/mL | <0.06 µg/mL | <0.06 µg/mL | 0.5 µg/mL (≈ 0.605 µM) | – | – | – | – | –
CCC1OC(=O)C(C)C(=O)C(C)C(OC2OC(C)CC(N(C)C)C2O)C(C)(OC)CC(C)C(=O)C(C)C2N(C3CN(Cc4cccc(-c5ccccn5)c4)C3)C(=O)OC12C (stereo not shown) [Example 1.43, 3-(pyridin-2-yl)-benzyl] | 16 µg/mL (≈ 19.2 µM) | <0.06 µg/mL | <0.06 µg/mL | <0.06 µg/mL | 2 µg/mL (≈ 2.4 µM) | – | – | – | – | –
CCC1OC(=O)C(C)C(=O)C(C)C(OC2OC(C)CC(N(C)C)C2O)C(C)(OC)CC(C)C(=O)C(C)C2N(C3CN(S(=O)(=O)c4cnc5ncccn45)C3)C(=O)OC12C (stereo not shown) [Example 3.17, 3-descladinosyl-11,12-dideoxy-6-O-methyl-3-oxo-12,11-(oxycarbonyl-(1-(imidazo[1,2-a]pyrimidine-3-sulfonyl)-azetidin-3-yl)-imino)-erythromycin A] | 4 µg/mL (≈ 4.71 µM) | <0.06 µg/mL | <0.06 µg/mL | 0.12 µg/mL (≈ 0.141 µM) | 0.5 µg/mL (≈ 0.589 µM) | – | – | – | – | –
CCC1OC(=O)C(C)C(=O)C(C)C(OC2OC(C)CC(N(C)C)C2O)C(C)(OC)CC(C)C(=O)C(C)C2N(C3CN(S(=O)(=O)c4ccc(-n5ccnc5)c(F)c4)C3)C(=O)OC12C (stereo not shown) [Example 3.81, 3-descladinosyl-11,12-dideoxy-4-O-methyl-3-oxo-12,11-(oxycarbonyl-(1-(3-fluoro-4-(1H-imidazol-1-yl)benzenesulfonyl)-azetidin-3-yl)-imino)-erythromycin A] | 4 µg/mL (≈ 4.48 µM) | <0.06 µg/mL | <0.06 µg/mL | <0.06 µg/mL | 1 µg/mL (≈ 1.12 µM) | – | – | – | – | –
CC[C@H]1OC(=O)[C@H](C)C(=O)[C@H](C)[C@@H](O[C@@H]2O[C@H](C)C[C@H](N(C)C)[C@H]2O)[C@](C)(OC)C[C@@H](C)C(=O)[C@H](C)[C@H]2N(CC3(O)CN(Cc4nc(C)[nH]c4C)C3)C(=O)O[C@]12C [7.07] | – | – | – | – | – | >64.00 µg/mL | 0.12 µg/mL (≈ 0.149 µM) | 8 µg/mL (≈ 9.93 µM) | 4 µg/mL (≈ 4.96 µM) | 16 µg/mL (≈ 19.9 µM)
CCC1OC(=O)C(C)C(=O)C(C)C(OC2OC(C)CC(N(C)C)C2O)C(C)(OC)CC(C)C(=O)C(C)C2N(CC3CCCN3Cc3cccnc3OC)C(=O)OC12C (stereo not shown) [12.02] | – | – | – | – | – | >64.00 µg/mL | <0.06 µg/mL | 8 µg/mL (≈ 9.79 µM) | 8 µg/mL (≈ 9.79 µM) | 16 µg/mL (≈ 19.6 µM)
CCC1OC(=O)C(C)C(=O)C(C)C(OC2OC(C)CC(N(C)C)C2O)C(C)(OC)CC(C)C(=O)C(C)C2N(C3CN(Cc4c(OC)cnc5ccccc45)C3)C(=O)OC12C (stereo not shown) [Example 1.71, 3-descladinosyl-11,12-dideoxy-6-O-methyl-3-oxo-12,11-(oxycarbonyl-(1-(3-methoxyquinoline-4-methyl)-azetidin-3-yl)-imino)-erythromycin A] | <0.063 µg/mL | <0.063 µg/mL | <0.063 µg/mL | <0.063 µg/mL | 1 µg/mL (≈ 1.19 µM) | – | – | – | – | –
